Measurements: US7425577B2, “Lipase-colipase inhibitor” (Forskarpatent 1 SYD AB, priority 2003, dated 2008)
Each block holds one molecule with its values, some of them ahead of it.

Target: T1, Lipase and colipase, purified from human pancreatic gland (Homo sapiens, UniProt P04118+P16233)
T1 construct: Lipase, Purified from Human Pancreatic Gland; Colipase, Purified from Human Pancreatic Gland; from tissue; host or cells: human pancreatic gland
T1 sequence (P16233 17-465): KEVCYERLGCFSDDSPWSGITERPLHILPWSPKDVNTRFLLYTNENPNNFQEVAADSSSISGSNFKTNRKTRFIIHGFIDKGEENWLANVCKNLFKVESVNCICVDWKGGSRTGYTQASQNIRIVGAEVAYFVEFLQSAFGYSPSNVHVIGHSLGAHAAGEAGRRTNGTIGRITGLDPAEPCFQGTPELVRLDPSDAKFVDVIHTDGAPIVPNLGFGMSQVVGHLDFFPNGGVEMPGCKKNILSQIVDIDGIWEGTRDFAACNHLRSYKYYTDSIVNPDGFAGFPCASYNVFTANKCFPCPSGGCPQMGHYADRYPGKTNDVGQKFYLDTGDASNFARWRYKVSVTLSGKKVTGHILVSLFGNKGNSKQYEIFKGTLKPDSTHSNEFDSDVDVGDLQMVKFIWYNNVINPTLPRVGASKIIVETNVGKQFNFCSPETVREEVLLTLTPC
T1 sequence (P04118 23-112): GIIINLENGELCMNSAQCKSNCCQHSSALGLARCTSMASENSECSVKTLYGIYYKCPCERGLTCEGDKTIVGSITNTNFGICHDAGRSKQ
Experiment: Determination of lipolysis by colipase/lipase (pH-stat, tributyrine emulsion with NaTDC)
Assay type: biochemical
Source text: Determination of Lipolysis by Colipase/Lipase
The most important enzyme in the gastro-intestinal tract being responsible for the hydrolysis of lipids/fats in the gastro-intestinal tract is lipase, pancreatic lipase, together with its protein cofactor colipase. These are two proteins, which are secreted from the pancreatic gland. […] The colipase binds to lipase in a molar 1:1 complex and then moves the complex to the triglyceride surface. In the binding between lipase and colipase hydrogen bonds are present, between arg38 of the colipase and ser343 of the lipase and from glu15 of the colipase and the asn241 of the lipase molecules. In the binding of colipase to the substrate (the lipids/fat) there are both hydrophobic bonds as well as ion-ion bonds present. By an isolated lack of colipase it has been shown that colipase has a decisive role for the lipolysis in the gastro-intestinal tract of humans. Pure lipase and colipase have been produced in accordance with the following.
Lipase, Purified from Human Pancreatic Gland
Colipase, Purified from Human Pancreatic Gland
0.5 ml of tributyrine is mixed with 15 ml of a buffer containing 1 mM CaCl2, 150 mM NaCl, 2 mM tris-maleate, pH 7.0 and 4 mM NaTDC (sodium taurodeoxycholate). An emulsion is obtained by continuous stirring. pH is titrated by means of a pH-state, where 0.1 N NaOH is added automatically to keep an constant pH. 10 μl of lipase is added from a stock solution containing 70 units of lipase/ml, followed by 10 μl of colipase from a stock solution containing 1 mg colipase/ml. An activity is registered which is determined to be 100%. An addition of an inhibitor is then made. A new assay is used for every concentration, prepared in the same way. The inhibition is registered as percentage of control. A dose-response plot is obtained for the compounds having an inhibiting ability.

Activity Inhibitor (amount of inhibitor 1.04 μmol, control activity 0.226): 0.179 µmol/min | Activity Inhibitor (amount of inhibitor 2.07 μmol, control activity 0.243): 0.121 µmol/min | Activity Inhibitor (amount of inhibitor 4.14 μmol, control activity 0.223): 0.056 µmol/min | Activity Inhibitor (amount of inhibitor 7.25 μmol, control activity 0.257): 0.045 µmol/min | Activity Inhibitor (amount of inhibitor 10.35 μmol, control activity 0.282): 0.033 µmol/min | Activity Inhibitor (amount of inhibitor 15.53 μmol, control activity 0.256): 0 µmol/min
SMILES: CCCCCCCCCCCCCCN(C)C [N,N-dimethyl tetradecyl amine]

SMILES: CCCCCCCCCCCCOCCOCCOCCOCCOCCOCCOCCOCCOCCN(CCC)CCC [dipropylaminoethyl octaethyleneglycol dodecyl ether]
Activity Inhibitor (amount of inhibitor 0.2 μmol, control activity 0.256): 0.256 µmol/min | Activity Inhibitor (amount of inhibitor 0.4 μmol, control activity 0.28): 0.256 µmol/min | Activity Inhibitor (amount of inhibitor 0.8 μmol, control activity 0.259): 0.209 µmol/min | Activity Inhibitor (amount of inhibitor 2.01 μmol, control activity 0.25): 0.136 µmol/min | Activity Inhibitor (amount of inhibitor 4.02 μmol, control activity 0.246): 0.096 µmol/min | Activity Inhibitor (amount of inhibitor 8.04 μmol, control activity 0.244): 0.033 µmol/min | Activity Inhibitor (amount of inhibitor 12.06 μmol, control activity 0.252): 0.011 µmol/min | Activity Inhibitor (amount of inhibitor 16.08 μmol, control activity 0.247): 0 µmol/min

Activity Inhibitor (amount of inhibitor 2.49 μmol, control activity 0.304): 0.249 µmol/min | Activity Inhibitor (amount of inhibitor 4.98 μmol, control activity 0.319): 0.215 µmol/min | Activity Inhibitor (amount of inhibitor 8.71 μmol, control activity 0.314): 0.136 µmol/min | Activity Inhibitor (amount of inhibitor 12.44 μmol, control activity 0.356): 0.069 µmol/min | Activity Inhibitor (amount of inhibitor 18.66 μmol, control activity 0.32): 0.053 µmol/min | Activity Inhibitor (amount of inhibitor 21.89 μmol, control activity 0.293): 0.035 µmol/min | Activity Inhibitor (amount of inhibitor 24.88 μmol, control activity 0.278): 0 µmol/min
SMILES: CCCCCCCCOCCN(C)C [dimethylaminoethyl octyl ether]

SMILES: CCCCCCCCCCCCOCCOCCOCCOCCOCCOCCN(C)C [dimethylaminoethyl pentaethyleneglycol dodecyl ether]
Activity Inhibitor (amount of inhibitor 0.26 μmol, control activity 0.307): 0.273 µmol/min | Activity Inhibitor (amount of inhibitor 0.52 μmol, control activity 0.29): 0.236 µmol/min | Activity Inhibitor (amount of inhibitor 1.05 μmol, control activity 0.302): 0.222 µmol/min | Activity Inhibitor (amount of inhibitor 2.62 μmol, control activity 0.299): 0.13 µmol/min | Activity Inhibitor (amount of inhibitor 5.23 μmol, control activity 0.314): 0.083 µmol/min | Activity Inhibitor (amount of inhibitor 7.85 μmol, control activity 0.312): 0.04 µmol/min | Activity Inhibitor (amount of inhibitor 10.46 μmol, control activity 0.3): 0.015 µmol/min | Activity Inhibitor (amount of inhibitor 15.69 μmol, control activity 0.319): 0.009 µmol/min | Activity Inhibitor (amount of inhibitor 20.92 μmol, control activity 0.282): 0 µmol/min
